Assay results taken from patent EP4563577A1, “NOVEL SALT OF IMIDAZO[1,2-A]PYRIDINE COMPOUND, CRYSTALLINE FORM THEREOF, AND PREPARATION METHOD” (Jeil Pharmaceutical Co., Ltd., priority 2022, dated 2024).
One block for each compound: values may come before it.

Columns and labels:
[1] = Bioavailability evaluation (pharmacokinetics after oral capsule administration); assay type: in vivo; conditions: fasted male beagle dogs, oral capsules, 10 mg/kg; for AUC(0-inf) / AUC(0-t) / Cmax / Tmax: dog, plasma
Description: Bioavailability was evaluated with regard to azetidin-1-yl{8-[(2,6-dimethylbenzyl)amino]-2,3-dimethylimidazo[1,2-a]pyridin-6-yl}methanone citrate according to Example 4(1) of the present invention and azetidin-1-yl{8-[(2,6-dimethylbenzyl)amino]-2,3-dimethylimidazo[1,2-a]pyridin-6-yl}methanone obtained according to Preparation Example 1 as an comparative example. Specific pharmacokinetic experiments and evaluation methods are as follows.
Fasted male beagle dogs were orally administered with capsules at a dose of 10 mg/kg, and bled at 0.08, 0.25, 0.5, 1, 3, 5, 8, and 24 hours after administration. Blood collected in an amount of 3 ml each from the jugular vein was centrifuged to separate plasma, and stored frozen in a cryogenic freezer before analysis.
Plasma pretreatment was performed by a protein precipitation method. 300 ul of acetonitrile containing an internal standard (200 ng/ml of carbamazepine) was added to 100 ul of a plasma sample and mixed. After sufficiently mixing, the resulting mixture was centrifuged at 12,000 rpm for 10 minutes, after which the supernatant was transferred to an assay vial and injected into a LC-MS/MS to analyze a blood concentration of the compound.
Parameters of time to maximum plasma concentration (Tmax), maximum plasma concentration (Cmax), and area under the plasma-concentration time curve (AUC0-t, AUC0-inf) were obtained using PK Solution.

[2] = Photostability evaluation (discoloration observed with naked eyes); assay type: physicochemical
Description: It is determined to be suitable only when the white to yellowish off-white powder form is maintained as a solid property.

[3] = Short-term storage stability (heat/moisture), purity by HPLC; assay type: physicochemical
Description: Purity of azetidin-1-yl{8-[(2,6-dimethylbenzyl)amino]-2,3-dimethylimidazo[1,2-a]pyridin-6-yl}methanone citrate according to Example 4(1) of the present invention was measured, and then the purity was measured after being left at 60°C for four days. Purity measurements were performed by HPLC. In addition, with regard to azetidin-1-yl{8-[(2,6-dimethylbenzyl)amino]-2,3-dimethylimidazo[1,2-a]pyridin-6-yl}methanone citrate according to Example 4(1) of the present invention, the purity was measured after being left for two days under the condition of 75 to 90% humidity (RH).

[4] = Long-term storage stability (25±2°C, 60±5% RH); assay type: physicochemical; conditions: for Moisture: criteria 1.0% or less; for Purity: criteria 99.0% or more; for Property: criteria: White to yellowish off-white powder
Description: (§1) An X-ray powder diffraction pattern was obtained through a solid phase detector over a range of 2° to 40° of a diffraction angle (2θ) with a 0.02° step size by using D8 Focus (Bruker ASX). The moisture content of the obtained sample was measured with an 870KF Titrino Plus (Metrohm) Karl-Fischer moisture meter. Immediately after preparing azetidin-1-yl{8-[(2,6-dimethylbenzyl)amino]-2,3-dimethylimidazo[1,2-a]pyridin-6-yl}methanone citrate according to Example 4(1) of the present invention, properties were confirmed with naked eyes, and the moisture content, purity, and XRD were measured, respectively. Subsequently, the same was primarily sealed in a polyethylene bag and then secondarily sealed in an aluminum bag, and then the properties were confirmed with naked eyes and the moisture content, purity, and XRD were also measured at 12, 24 and 36 months after being stored under the condition of 25±2°C and 60±5% RH.

[5] = Thermal and moisture stability under accelerated conditions (40±2°C, 75±5% RH); assay type: physicochemical; conditions: for Moisture: criteria 1.0% or less; for Purity: criteria 99.0% or more; for Property: criteria: White to yellowish off-white powder
Description: as §1, with “at one” for “at 12, 24”, “and six” for “and 36”, “under an accelerated” for “under the”, “of 40±2°C” for “of 25±2°C”, “and 75±5%” for “and 60±5%”

[6] = Immediately after preparation (Initial value)

- AUC(0-inf) [1]: 15200 ng·h/mL
- AUC(0-t) [1]: 15000 ng·h/mL
- Cmax [1]: 3030 ng/mL
- Tmax [1]: 1 h
- AUC improvement relative to Comparative Example (compound I free base) [1]: five times or more
- Cmax increase relative to Comparative Example (compound I free base) [1]: ≥ 11 times
- color ([2]; Initial value): White
- color ([2]; UV 200 watt (35 W), 25°C, humidity 60%): Off-white
- color ([2]; Visible 1200k lux (35k lux), 25°C, humidity 60%): Slightly off-white
- Purity (%) ([3]; Humidity 75~90 %, Day 2): 99.976%
- Purity (%) ([3]; Initial value): 99.955%
- Purity (%) ([3]; Temperature 60°C, Day 4): 99.974%
- XRD (Comparison with initial value) ([4]; 12 months, 25±2°C, 60±5% RH): Same
- Moisture ([4]; 12 months, 25±2°C, 60±5% RH): 0.52%
- Purity ([4]; 12 months, 25±2°C, 60±5% RH): 99.96%
- Property ([4]; 12 months, 25±2°C, 60±5% RH): Suitable
- XRD (Comparison with initial value) ([4]; 24 months, 25±2°C, 60±5% RH): Same
- Moisture ([4]; 24 months, 25±2°C, 60±5% RH): 0.45%
- Purity ([4]; 24 months, 25±2°C, 60±5% RH): 99.97%
- Property ([4]; 24 months, 25±2°C, 60±5% RH): Suitable
- XRD (Comparison with initial value) ([4]; 36 months, 25±2°C, 60±5% RH): Same
- Moisture ([4]; 36 months, 25±2°C, 60±5% RH): 0.60%
- Purity ([4]; 36 months, 25±2°C, 60±5% RH): 99.96%
- Property ([4]; 36 months, 25±2°C, 60±5% RH): Suitable
- XRD (Comparison with initial value) [4, 6]: Same
- Moisture [4, 6]: 0.74%
- Purity [4, 6]: 99.96%
- Property [4, 6]: Suitable
- XRD (Comparison with initial value) ([5]; 1 month, 40±2°C, 75±5% RH): Same
- Moisture ([5]; 1 month, 40±2°C, 75±5% RH): 0.75%
- Purity ([5]; 1 month, 40±2°C, 75±5% RH): 99.97%
- Property ([5]; 1 month, 40±2°C, 75±5% RH): Suitable
- XRD (Comparison with initial value) ([5]; 6 months, 40±2°C, 75±5% RH): Same
- Moisture ([5]; 6 months, 40±2°C, 75±5% RH): 0.15%
- Purity ([5]; 6 months, 40±2°C, 75±5% RH): 99.96%
- Property ([5]; 6 months, 40±2°C, 75±5% RH): Suitable
- XRD (Comparison with initial value) [5, 6]: Same
- Moisture [5, 6]: 0.74%
- Purity [5, 6]: 99.96%
- Property [5, 6]: Suitable
Compound: Cc1cccc(C)c1CNc1cc(C(=O)N2CCC2)cn2c(C)c(C)nc12.O=C(O)CC(O)(CC(=O)O)C(=O)O [Citrate of Compound I, azetidin-1-yl{8-[(2,6-dimethylbenzyl)amino]-2,3-dimethylimidazo[1,2-a]pyridin-6-yl}methanone citrate]

- AUC(0-inf) [1]: 2820 ng·h/mL
- AUC(0-t) [1]: 2630 ng·h/mL
- Cmax [1]: 262 ng/mL
- Tmax [1]: 5 h
Compound: Cc1cccc(C)c1CNc1cc(C(=O)N2CCC2)cn2c(C)c(C)nc12 [Compound I (free base), Azetidin-1-yl{8-[(2,6-dimethylbenzyl)amino]-2,3-dimethylimidazo[1,2-a]pyridin-6-yl}methanone]
